Earlier results on 2 compounds are cited in US20150164858A1, “COMBINATION COMPRISING PARTHENOLIDE FOR USE IN THE TREATMENT OF ALZHEIMER'S DISEASE AND OTHER NEURODEGENERATIVE DISORDERS” (King Abdullah University of Science and Technology, priority 2012, published 2015).

One series relates to patients with AD. Conditions: moderate to severe AD.
For a further series, the target named is TLR4 (Homo sapiens, UniProt O00206).
For series [1], the system named is HEK293 cells stably expressing TLR4/MD-2/CD14.

TLR4, sequence (O00206 24-839): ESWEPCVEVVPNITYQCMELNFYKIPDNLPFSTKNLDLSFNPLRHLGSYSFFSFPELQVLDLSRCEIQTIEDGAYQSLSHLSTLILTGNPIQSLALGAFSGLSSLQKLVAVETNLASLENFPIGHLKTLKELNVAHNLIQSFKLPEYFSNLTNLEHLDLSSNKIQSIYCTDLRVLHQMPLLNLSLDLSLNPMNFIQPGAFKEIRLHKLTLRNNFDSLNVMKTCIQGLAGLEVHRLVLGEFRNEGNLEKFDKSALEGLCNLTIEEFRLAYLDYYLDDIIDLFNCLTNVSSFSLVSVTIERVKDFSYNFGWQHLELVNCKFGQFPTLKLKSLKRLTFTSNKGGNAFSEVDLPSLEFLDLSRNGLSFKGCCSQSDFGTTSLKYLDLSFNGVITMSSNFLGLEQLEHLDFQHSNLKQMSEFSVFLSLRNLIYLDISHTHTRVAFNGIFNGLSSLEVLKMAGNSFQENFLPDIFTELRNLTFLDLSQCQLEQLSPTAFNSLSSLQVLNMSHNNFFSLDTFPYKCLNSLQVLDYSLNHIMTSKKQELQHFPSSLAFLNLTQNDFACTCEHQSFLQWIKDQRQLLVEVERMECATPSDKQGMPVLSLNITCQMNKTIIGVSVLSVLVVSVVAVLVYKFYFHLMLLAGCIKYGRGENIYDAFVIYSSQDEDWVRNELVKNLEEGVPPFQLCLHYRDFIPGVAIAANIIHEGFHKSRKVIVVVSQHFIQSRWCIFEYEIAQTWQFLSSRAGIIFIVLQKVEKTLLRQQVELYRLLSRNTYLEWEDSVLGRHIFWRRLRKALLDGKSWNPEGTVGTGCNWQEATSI

In the case of `CC12CC3CC(C)(C1)CC(N)(C3)C2` [Memantine], the cognitive function result in the series on patients with AD is “improve cognitive function”.

Take `CCOC(=O)C1=CCCC[C@H]1S(=O)(=O)Nc1ccc(F)cc1Cl` [Resatorvid]: the TLR4 signaling entry at TLR4 is reported as “suppress TLR4 signaling”. Also, the “binding site in TLR4” value on TLR4 (intracellular domain of TLR4) is listed as “binding directly to a specific amino acid Cys747”. In series [1], the “TIRAP-mediated activation of NF-κB” value is reported as “inhibit”; the “TRAM-mediated activation of NF-κB and interferon-sensitive response element” value is recorded as “inhibit”.
